Data from publication PMC7613998, “Development of selective inhibitors of phosphatidylinositol 3-kinase C2α” (Nature Chemical Biology, 2022).

Key:
Assay in all cases: biochemical
Set-up in all cases: SelectScreen Adapta purified lipid kinase panel, 1 uM compound, 10 uM ATP, per cent inhibition
PI4K2B (PI4K2 beta) = PI4K2B (PI4K2 beta) (Homo sapiens, UniProt Q8TCG2); settings: ATP=10; Technology=Adapta; 10 uM ATP
Protocol: (§1) As PI3KC2α is related to other PI3Ks and to PI3K-like protein kinases such as mTOR, the selectivity of PITCOINs was determined in a panel of biochemical assays. […] Finally, the high specificity of PITCOINs for PI3KC2α was verified by Kinobead profiling experiments. In this approach, the ability of PITCOINs to compete the affinity capture of cellular kinases on immobilized nonselective kinase inhibitors (Kinobeads) is analyzed by mass spectrometry (MS)[31]. […] Four nonkinase weak off-targets were globally found for the three inhibitors with only FECH[32] common to the three PITCOINs (Supplementary Dataset).  Extended Data Fig. 2 Lipid kinase inhibitor profile of PITCOIN1-3. (a–c) Selectivity profiling of PITCOIN1-3 (1 µM) with purified lipid kinases in the presence of 10 µM ATP. […] Data are presented as mean ± SD from two independent experiments. (d, e) IC50 measurements of PITCOIN1-3 against purified recombinant class I PI3K p110α/p85α (d) or purified class III PI3K VPS34 complex II (e). 10 µM ATP and 20 µM PIP3 (for p110α/p85α) or 200 µM PI (for VPS34 complex II) were used as substrates. […] Data are presented as mean ± SD from two independent experiments. Source data

PI4KA (PI4K alpha) = PI4KA (PI4K alpha) (Homo sapiens, UniProt P42356); settings: ATP=10; Technology=Adapta; 10 uM ATP
PI4KA (PI4K alpha), sequence (P42356 whole entry): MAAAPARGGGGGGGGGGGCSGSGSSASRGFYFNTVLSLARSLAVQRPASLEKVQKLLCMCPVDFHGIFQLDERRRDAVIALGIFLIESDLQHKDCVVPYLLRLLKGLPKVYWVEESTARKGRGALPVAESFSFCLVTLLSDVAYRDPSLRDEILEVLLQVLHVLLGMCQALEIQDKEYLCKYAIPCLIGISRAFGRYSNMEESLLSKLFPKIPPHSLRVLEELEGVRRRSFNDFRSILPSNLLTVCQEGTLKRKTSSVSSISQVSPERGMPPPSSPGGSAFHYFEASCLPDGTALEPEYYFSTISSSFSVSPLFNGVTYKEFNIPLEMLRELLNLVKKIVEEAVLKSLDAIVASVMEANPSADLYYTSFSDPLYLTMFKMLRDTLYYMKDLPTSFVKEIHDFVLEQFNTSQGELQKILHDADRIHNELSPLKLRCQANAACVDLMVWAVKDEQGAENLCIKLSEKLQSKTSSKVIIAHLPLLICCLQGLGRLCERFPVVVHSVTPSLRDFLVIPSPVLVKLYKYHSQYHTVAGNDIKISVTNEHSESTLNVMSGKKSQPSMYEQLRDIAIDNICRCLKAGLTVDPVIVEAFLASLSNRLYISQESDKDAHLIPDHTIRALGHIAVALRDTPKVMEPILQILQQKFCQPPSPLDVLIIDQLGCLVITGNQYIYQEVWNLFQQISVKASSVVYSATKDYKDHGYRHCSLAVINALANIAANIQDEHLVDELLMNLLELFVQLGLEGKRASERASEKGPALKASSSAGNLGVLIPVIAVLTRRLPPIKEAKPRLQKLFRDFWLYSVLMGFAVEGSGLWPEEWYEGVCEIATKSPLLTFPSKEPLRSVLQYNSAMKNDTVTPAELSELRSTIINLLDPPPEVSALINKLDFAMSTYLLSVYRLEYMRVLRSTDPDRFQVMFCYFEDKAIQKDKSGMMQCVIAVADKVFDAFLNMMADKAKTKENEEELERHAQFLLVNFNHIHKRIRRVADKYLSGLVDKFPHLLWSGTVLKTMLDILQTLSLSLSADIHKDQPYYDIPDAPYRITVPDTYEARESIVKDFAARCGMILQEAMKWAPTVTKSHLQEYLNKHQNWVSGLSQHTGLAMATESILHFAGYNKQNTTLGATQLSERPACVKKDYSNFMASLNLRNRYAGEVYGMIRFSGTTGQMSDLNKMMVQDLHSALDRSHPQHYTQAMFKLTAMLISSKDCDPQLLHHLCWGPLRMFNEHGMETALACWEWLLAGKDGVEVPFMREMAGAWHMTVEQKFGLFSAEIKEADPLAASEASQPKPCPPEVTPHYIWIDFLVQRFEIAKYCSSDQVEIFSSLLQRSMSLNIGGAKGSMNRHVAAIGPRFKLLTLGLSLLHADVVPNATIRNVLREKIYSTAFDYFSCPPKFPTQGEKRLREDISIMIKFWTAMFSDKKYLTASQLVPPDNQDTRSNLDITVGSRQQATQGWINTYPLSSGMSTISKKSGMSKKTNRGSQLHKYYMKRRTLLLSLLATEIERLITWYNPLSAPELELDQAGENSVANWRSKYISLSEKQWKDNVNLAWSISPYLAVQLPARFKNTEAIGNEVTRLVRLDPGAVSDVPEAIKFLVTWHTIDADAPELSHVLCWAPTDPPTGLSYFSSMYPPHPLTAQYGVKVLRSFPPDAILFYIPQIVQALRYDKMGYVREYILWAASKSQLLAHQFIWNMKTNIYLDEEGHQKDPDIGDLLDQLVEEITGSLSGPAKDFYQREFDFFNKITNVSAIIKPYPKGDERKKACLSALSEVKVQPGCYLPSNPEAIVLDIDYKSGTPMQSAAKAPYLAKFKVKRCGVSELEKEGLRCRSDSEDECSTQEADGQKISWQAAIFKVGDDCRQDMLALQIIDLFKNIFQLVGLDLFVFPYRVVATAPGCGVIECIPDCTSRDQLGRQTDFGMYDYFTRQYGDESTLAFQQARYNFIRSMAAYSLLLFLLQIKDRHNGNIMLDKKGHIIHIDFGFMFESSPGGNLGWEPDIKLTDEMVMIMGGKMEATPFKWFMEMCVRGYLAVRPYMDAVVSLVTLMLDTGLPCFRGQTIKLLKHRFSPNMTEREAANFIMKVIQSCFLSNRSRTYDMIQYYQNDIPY
Protocol: as §1

PI4KB (PI4K beta) = PI4KB (PI4K beta) (Homo sapiens, UniProt Q9UBF8); settings: ATP=10; Technology=Adapta; 10 uM ATP
PI4KB (PI4K beta), sequence (Q9UBF8 whole entry): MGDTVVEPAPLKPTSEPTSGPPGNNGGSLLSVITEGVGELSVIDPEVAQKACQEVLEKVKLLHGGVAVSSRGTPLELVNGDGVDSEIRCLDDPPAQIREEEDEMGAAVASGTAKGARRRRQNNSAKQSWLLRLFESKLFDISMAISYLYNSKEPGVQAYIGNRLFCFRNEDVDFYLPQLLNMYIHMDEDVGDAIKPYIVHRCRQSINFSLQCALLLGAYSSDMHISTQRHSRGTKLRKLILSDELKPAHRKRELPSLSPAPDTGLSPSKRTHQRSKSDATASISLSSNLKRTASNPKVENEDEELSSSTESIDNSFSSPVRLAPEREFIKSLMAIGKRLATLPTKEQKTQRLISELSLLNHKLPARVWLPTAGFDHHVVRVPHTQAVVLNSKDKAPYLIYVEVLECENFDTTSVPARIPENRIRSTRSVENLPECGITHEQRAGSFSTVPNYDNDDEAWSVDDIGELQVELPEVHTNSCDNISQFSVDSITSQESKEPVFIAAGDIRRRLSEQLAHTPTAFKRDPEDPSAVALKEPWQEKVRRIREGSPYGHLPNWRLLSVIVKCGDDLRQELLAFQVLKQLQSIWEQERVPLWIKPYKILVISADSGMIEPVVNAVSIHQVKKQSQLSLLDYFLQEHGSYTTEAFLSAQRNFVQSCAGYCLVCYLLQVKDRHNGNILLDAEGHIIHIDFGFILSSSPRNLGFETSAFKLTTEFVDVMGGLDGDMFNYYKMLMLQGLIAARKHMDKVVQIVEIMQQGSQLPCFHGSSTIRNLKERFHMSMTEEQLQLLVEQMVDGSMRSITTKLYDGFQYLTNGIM
Protocol: as §1

PIK3C2A (PI3K-C2 alpha) = PIK3C2A (PI3K-C2 alpha) (Homo sapiens, UniProt O00443); settings: ATP=10; Technology=Adapta; 10 uM ATP; 1 µM; inhibitor
Protocol: as §1

PIK3C2B (PI3K-C2 beta) = PIK3C2B (PI3K-C2 beta) (Homo sapiens, UniProt O00750); settings: ATP=10; Technology=Adapta; 10 uM ATP
Protocol: as §1

PIK3C3 (hVPS34) = PIK3C3 (hVPS34) (Homo sapiens, UniProt Q8NEB9); settings: ATP=10; Technology=Adapta; 10 uM ATP
Protocol: as §1

[1] = molecular target: PIK3CB/PIK3R1 (p110 beta/p85 alpha) (Homo sapiens, UniProt P42338); settings: ATP=10; Technology=Adapta; 10 uM ATP
Protocol: as §1

[2] = molecular target: PIK3CB/PIK3R2 (p110 beta/p85 beta) (Homo sapiens, UniProt P42338); settings: ATP=10; Technology=Adapta; 10 uM ATP
Protocol: as §1

PIP5K1A = PIP5K1A (Homo sapiens, UniProt Q99755); settings: ATP=10; Technology=Adapta; 10 uM ATP
PIP5K1A, sequence (Q99755 whole entry): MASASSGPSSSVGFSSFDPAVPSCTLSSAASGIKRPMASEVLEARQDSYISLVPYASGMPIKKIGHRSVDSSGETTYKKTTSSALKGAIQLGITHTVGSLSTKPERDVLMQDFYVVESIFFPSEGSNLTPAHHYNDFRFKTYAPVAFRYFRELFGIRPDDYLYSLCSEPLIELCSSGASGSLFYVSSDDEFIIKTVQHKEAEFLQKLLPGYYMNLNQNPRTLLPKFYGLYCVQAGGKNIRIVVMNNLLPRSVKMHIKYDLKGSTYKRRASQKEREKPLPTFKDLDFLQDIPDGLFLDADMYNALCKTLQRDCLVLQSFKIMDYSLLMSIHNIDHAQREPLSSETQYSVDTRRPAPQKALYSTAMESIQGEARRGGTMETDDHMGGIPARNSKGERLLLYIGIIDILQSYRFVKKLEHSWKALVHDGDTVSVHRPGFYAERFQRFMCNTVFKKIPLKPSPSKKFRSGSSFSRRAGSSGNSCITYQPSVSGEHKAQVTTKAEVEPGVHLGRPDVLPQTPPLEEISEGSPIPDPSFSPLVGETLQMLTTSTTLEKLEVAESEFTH
Protocol: as §1

PIP5K1C = PIP5K1C (Homo sapiens, UniProt O60331); settings: ATP=10; Technology=Adapta; 10 uM ATP
PIP5K1C, sequence (O60331 whole entry): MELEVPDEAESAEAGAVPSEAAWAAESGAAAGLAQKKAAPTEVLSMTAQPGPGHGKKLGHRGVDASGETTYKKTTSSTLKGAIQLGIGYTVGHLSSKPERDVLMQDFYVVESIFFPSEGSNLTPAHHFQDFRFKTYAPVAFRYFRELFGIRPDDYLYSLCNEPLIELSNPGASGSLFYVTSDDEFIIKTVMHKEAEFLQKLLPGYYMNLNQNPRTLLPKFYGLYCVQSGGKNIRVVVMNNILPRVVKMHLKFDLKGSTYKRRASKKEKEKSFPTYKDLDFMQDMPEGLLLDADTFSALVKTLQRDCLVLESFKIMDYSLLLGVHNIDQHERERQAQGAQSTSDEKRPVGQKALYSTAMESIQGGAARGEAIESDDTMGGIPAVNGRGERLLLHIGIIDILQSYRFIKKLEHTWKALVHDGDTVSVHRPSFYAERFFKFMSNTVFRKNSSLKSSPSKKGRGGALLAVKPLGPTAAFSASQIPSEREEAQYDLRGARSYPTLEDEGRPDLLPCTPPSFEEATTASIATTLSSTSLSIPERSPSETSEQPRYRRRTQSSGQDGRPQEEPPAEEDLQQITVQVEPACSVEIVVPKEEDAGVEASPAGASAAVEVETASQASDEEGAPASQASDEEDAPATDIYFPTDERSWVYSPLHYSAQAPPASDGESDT
Protocol: as §1

SPHK1 = SPHK1 (Homo sapiens, UniProt Q9NYA1); settings: ATP=10; Technology=Adapta; 10 uM ATP
SPHK1, sequence (Q9NYA1 whole entry): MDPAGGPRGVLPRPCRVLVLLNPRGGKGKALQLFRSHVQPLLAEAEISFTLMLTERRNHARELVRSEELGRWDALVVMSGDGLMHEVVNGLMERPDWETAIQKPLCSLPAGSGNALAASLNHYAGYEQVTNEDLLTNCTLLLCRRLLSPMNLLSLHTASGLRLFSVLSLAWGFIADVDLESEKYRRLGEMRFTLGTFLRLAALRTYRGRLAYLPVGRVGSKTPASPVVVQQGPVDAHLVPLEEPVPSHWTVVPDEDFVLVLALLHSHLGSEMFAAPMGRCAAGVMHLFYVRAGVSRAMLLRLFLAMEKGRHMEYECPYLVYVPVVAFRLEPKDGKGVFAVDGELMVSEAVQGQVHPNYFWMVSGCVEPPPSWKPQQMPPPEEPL
Protocol: as §1

SPHK2 = molecular target: T1, SPHK2 (Homo sapiens, UniProt Q9NRA0); settings: ATP=10; Technology=Adapta; 10 uM ATP
T1 sequence (Q9NRA0 1-654): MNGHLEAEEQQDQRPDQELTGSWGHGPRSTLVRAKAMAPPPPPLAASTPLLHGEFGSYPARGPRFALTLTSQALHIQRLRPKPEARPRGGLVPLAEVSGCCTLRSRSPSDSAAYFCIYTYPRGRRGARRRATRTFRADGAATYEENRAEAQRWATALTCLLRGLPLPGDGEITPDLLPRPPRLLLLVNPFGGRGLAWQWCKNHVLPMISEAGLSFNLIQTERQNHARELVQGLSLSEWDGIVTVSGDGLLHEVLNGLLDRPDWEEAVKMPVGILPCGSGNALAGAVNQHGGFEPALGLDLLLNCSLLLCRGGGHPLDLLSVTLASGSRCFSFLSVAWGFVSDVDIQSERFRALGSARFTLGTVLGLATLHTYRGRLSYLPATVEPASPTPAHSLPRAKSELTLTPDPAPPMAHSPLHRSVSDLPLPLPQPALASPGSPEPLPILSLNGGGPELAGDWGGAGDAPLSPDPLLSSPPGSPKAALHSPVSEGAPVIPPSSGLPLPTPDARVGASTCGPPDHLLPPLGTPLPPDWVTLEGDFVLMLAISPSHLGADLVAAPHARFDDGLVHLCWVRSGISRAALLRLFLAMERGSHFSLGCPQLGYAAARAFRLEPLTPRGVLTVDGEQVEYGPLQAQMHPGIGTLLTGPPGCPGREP
Protocol: as §1

PI4K2B (PI4K2 beta), sequence (Q8TCG2 whole entry): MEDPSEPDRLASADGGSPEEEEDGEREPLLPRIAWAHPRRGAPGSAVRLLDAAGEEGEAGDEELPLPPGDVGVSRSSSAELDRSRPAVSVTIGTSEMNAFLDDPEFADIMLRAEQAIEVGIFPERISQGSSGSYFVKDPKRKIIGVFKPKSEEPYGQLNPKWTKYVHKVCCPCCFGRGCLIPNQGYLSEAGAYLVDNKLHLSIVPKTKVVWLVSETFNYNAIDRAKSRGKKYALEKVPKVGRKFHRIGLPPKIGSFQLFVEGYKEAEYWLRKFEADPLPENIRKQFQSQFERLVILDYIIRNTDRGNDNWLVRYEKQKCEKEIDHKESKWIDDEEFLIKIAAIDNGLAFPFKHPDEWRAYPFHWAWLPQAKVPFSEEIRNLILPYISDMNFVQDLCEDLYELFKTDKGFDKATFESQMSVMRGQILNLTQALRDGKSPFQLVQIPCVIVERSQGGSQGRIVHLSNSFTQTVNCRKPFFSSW

**Q.** `O=C(CSc1nc2nccnc2c(=O)n1CCc1ccccc1)Nc1nc(-c2cccc(O)c2)cs1` [compound 2, PITCOIN2] was tested. Which inhibition at 1 µM (PI4K2B (PI4K2 beta)) did it give?
**A.** -5%

**Q.** What about the inhibition at 1 µM (PI4KA (PI4K alpha)) of the same compound?
**A.** -9%

**Q.** And the inhibition at 1 µM (PI4KB (PI4K beta))?
**A.** 3%

**Q.** And the “% Inhibition Avg” value (PIK3C2A (PI3K-C2 alpha))?
**A.** 87%

**Q.** What about the inhibition at 1 µM (PIK3C2B (PI3K-C2 beta)) of the same compound?
**A.** 40%

**Q.** And the inhibition at 1 µM (PIK3C3 (hVPS34))?
**A.** 7%

**Q.** What about the inhibition at 1 µM [1] of the same compound?
**A.** 13%

**Q.** What about the inhibition at 1 µM [2] of the same compound?
**A.** -2%

**Q.** And the inhibition at 1 µM (PIP5K1A)?
**A.** -6%

**Q.** What about the inhibition at 1 µM (PIP5K1C) of the same compound?
**A.** -8%

**Q.** What about the inhibition at 1 µM (SPHK1) of the same compound?
**A.** -6%

**Q.** What about the inhibition at 1 µM (SPHK2) of the same compound?
**A.** -1%

**Q.** Which results are given for `CS(=O)(=O)Nc1cccc(-c2csc(NC(=O)CSc3nc4nccnc4c(=O)n3CCc3ccccc3)n2)c1` [compound 3, PITCOIN3]?
**A.** inhibition at 1 µM (PI4K2B (PI4K2 beta)): 8%; inhibition at 1 µM (PI4KA (PI4K alpha)): 5%; inhibition at 1 µM (PI4KB (PI4K beta)): 13%; % Inhibition Avg (PIK3C2A (PI3K-C2 alpha)): 83%; inhibition at 1 µM (PIK3C2B (PI3K-C2 beta)): 9%; inhibition at 1 µM (PIK3C3 (hVPS34)): 2%; inhibition at 1 µM [1]: 12%; inhibition at 1 µM [2]: 7%; inhibition at 1 µM (PIP5K1A): -7%; inhibition at 1 µM (PIP5K1C): -4%; inhibition at 1 µM (SPHK1): -1%; inhibition at 1 µM (SPHK2): -5%

**Q.** For `O=C(CSc1nc2nccnc2c(=O)n1CCc1ccccc1)Nc1nccs1` [compound 1, PITCOIN1], which inhibition at 1 µM (PI4K2B (PI4K2 beta)) is on record?
**A.** 4%

**Q.** And the inhibition at 1 µM (PI4KA (PI4K alpha))?
**A.** 1%

**Q.** What about the inhibition at 1 µM (PI4KB (PI4K beta)) of the same compound?
**A.** 4%

**Q.** What about the “% Inhibition Avg” value (PIK3C2A (PI3K-C2 alpha)) of the same compound?
**A.** 88%

**Q.** And the inhibition at 1 µM (PIK3C2B (PI3K-C2 beta))?
**A.** 12%

**Q.** And the inhibition at 1 µM (PIK3C3 (hVPS34))?
**A.** -14%

**Q.** What about the inhibition at 1 µM [1] of the same compound?
**A.** 10%

**Q.** And the inhibition at 1 µM [2]?
**A.** 3%

**Q.** And the inhibition at 1 µM (PIP5K1A)?
**A.** 4%

**Q.** What about the inhibition at 1 µM (PIP5K1C) of the same compound?
**A.** 15%

**Q.** And the inhibition at 1 µM (SPHK1)?
**A.** -1%

**Q.** And the inhibition at 1 µM (SPHK2)?
**A.** 9%
